Test results published in PubChem BioAssay (NCI).
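Protocol summary: plate cells (96-well), add compound at 5 concentrations, incubate 48 h, interpolate endpoints linearly. GI50: concentration for 50% inhibition of growth. TGI: total growth inhibition.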

Experiments:
Test in all cases: DTP human tumour cell line panel, 48 h
EKVX NSCLC = test system: EKVX NSCLC
MOLT-4 leukemia = test system: MOLT-4 leukemia
MDA-MB-231 breast = test system: MDA-MB-231 breast
M14 melanoma = test system: M14 melanoma
OVCAR-4 ovarian = test system: OVCAR-4 ovarian
OVCAR-8 ovarian = test system: OVCAR-8 ovarian
UO-31 renal = test system: UO-31 renal
MALME-3M melanoma = test system: MALME-3M melanoma
RXF 393 renal = test system: RXF 393 renal
SF-539 CNS = test system: SF-539 CNS
HOP-92 NSCLC = test system: HOP-92 NSCLC
CCRF-CEM leukemia = test system: CCRF-CEM leukemia
SN12C renal = test system: SN12C renal
SR leukemia = test system: SR leukemia
MDA-MB-435 = test system: MDA-MB-435
NCI-H23 lung = test system: NCI-H23 lung
A549 NSCLC = test system: A549 NSCLC
COLO 205 colon = test system: COLO 205 colon
K-562 leukemia = test system: K-562 leukemia
DU-145 prostate = test system: DU-145 prostate
SNB-19 CNS = test system: SNB-19 CNS
OVCAR-3 ovarian = test system: OVCAR-3 ovarian
RPMI-8226 leukemia = test system: RPMI-8226 leukemia
UACC-257 melanoma = test system: UACC-257 melanoma
KM12 colon = test system: KM12 colon
SK-MEL-28 melanoma = test system: SK-MEL-28 melanoma
HL-60(TB) leukemia = test system: HL-60(TB) leukemia
SNB-75 CNS = test system: SNB-75 CNS
MCF7 breast = test system: MCF7 breast
UACC-62 melanoma = test system: UACC-62 melanoma
T-47D breast = test system: T-47D breast
BT-549 breast = test system: BT-549 breast
SK-MEL-2 melanoma = test system: SK-MEL-2 melanoma
LOX IMVI melanoma = test system: LOX IMVI melanoma
HS 578T breast = test system: HS 578T breast
IGROV1 ovarian = test system: IGROV1 ovarian
SW-620 colon = test system: SW-620 colon
786-0 renal = test system: 786-0 renal
PC-3 prostate = test system: PC-3 prostate
HT29 colon = test system: HT29 colon
OVCAR-5 ovarian = test system: OVCAR-5 ovarian
HCC-2998 colon = test system: HCC-2998 colon
NCI-H226 lung = test system: NCI-H226 lung
U251 CNS = test system: U251 CNS
HOP-62 NSCLC = test system: HOP-62 NSCLC
HCT-15 colon = test system: HCT-15 colon
SF-295 CNS = test system: SF-295 CNS
SK-OV-3 ovarian = test system: SK-OV-3 ovarian
TK-10 renal = test system: TK-10 renal
ACHN renal = test system: ACHN renal
A498 renal = test system: A498 renal
NCI/ADR-RES ovarian = test system: NCI/ADR-RES ovarian
NCI-H522 lung = test system: NCI-H522 lung
HCT-116 colon = test system: HCT-116 colon
CAKI-1 renal = test system: CAKI-1 renal
NCI-H460 lung = test system: NCI-H460 lung
SK-MEL-5 melanoma = test system: SK-MEL-5 melanoma
SF-268 CNS = test system: SF-268 CNS

Work on `COc1ccc(C(=O)c2cc(OC)c3c(c2)OCO3)cc1O` yielded a GI50 (EKVX NSCLC) of 19800 nM, a TGI (EKVX NSCLC) of over 100000 nM and a GI50 (MOLT-4 leukemia) of 617 nM. The TGI (MOLT-4 leukemia) was over 100000 nM, the GI50 (MDA-MB-231 breast) was 572 nM and the TGI (MDA-MB-231 breast) was over 100000 nM. It also gave a GI50 (M14 melanoma) of 47.3 nM, a TGI (M14 melanoma) of 5220 nM and a GI50 (OVCAR-4 ovarian) of 1720 nM. It also gave a TGI (OVCAR-4 ovarian) of over 100000 nM, a GI50 (OVCAR-8 ovarian) of 387 nM and a TGI (OVCAR-8 ovarian) of over 100000 nM. The GI50 (UO-31 renal) was 3640 nM, the TGI (UO-31 renal) was over 100000 nM and the GI50 (MALME-3M melanoma) was 6720 nM. The TGI (MALME-3M melanoma) was over 100000 nM, the GI50 (RXF 393 renal) was 215 nM and the TGI (RXF 393 renal) was 674 nM. The GI50 (SF-539 CNS) was 199 nM, the TGI (SF-539 CNS) was 3070 nM and the GI50 (HOP-92 NSCLC) was 824 nM. It also gave a TGI (HOP-92 NSCLC) of 52700 nM, a GI50 (CCRF-CEM leukemia) of 298 nM and a TGI (CCRF-CEM leukemia) of over 100000 nM. For the same molecule, the GI50 (SN12C renal) was 1090 nM, the TGI (SN12C renal) was over 100000 nM and the GI50 (SR leukemia) was 42.3 nM. It also gave a TGI (SR leukemia) of over 100000 nM, a GI50 (MDA-MB-435) of 22.1 nM and a TGI (MDA-MB-435) of 60.3 nM. It also gave a GI50 (NCI-H23 lung) of 248 nM, a TGI (NCI-H23 lung) of over 24800 nM and a GI50 (A549 NSCLC) of 614 nM. It also gave a TGI (A549 NSCLC) of over 100000 nM, a GI50 (COLO 205 colon) of 7510 nM and a TGI (COLO 205 colon) of 21000 nM. For the same molecule, the GI50 (K-562 leukemia) was 45.9 nM, the TGI (K-562 leukemia) was over 100000 nM and the GI50 (DU-145 prostate) was 340 nM. The TGI (DU-145 prostate) was 3520 nM, the GI50 (SNB-19 CNS) was 377 nM and the TGI (SNB-19 CNS) was over 100000 nM. It also gave a GI50 (OVCAR-3 ovarian) of 213 nM, a TGI (OVCAR-3 ovarian) of 481 nM and a GI50 (RPMI-8226 leukemia) of 309 nM. For the same molecule, the TGI (RPMI-8226 leukemia) was over 44000 nM, the GI50 (UACC-257 melanoma) was 1130 nM and the TGI (UACC-257 melanoma) was over 79500 nM. It also gave a GI50 (KM12 colon) of 50.5 nM, a TGI (KM12 colon) of 2640 nM and a GI50 (SK-MEL-28 melanoma) of 457 nM. For the same molecule, the TGI (SK-MEL-28 melanoma) was over 100000 nM, the GI50 (HL-60(TB) leukemia) was 119 nM and the TGI (HL-60(TB) leukemia) was 2240 nM. It also gave a GI50 (SNB-75 CNS) of 166 nM, a TGI (SNB-75 CNS) of 34600 nM and a GI50 (MCF7 breast) of 332 nM. For the same molecule, the TGI (MCF7 breast) was 64000 nM, the GI50 (UACC-62 melanoma) was 946 nM and the TGI (UACC-62 melanoma) was over 100000 nM. The GI50 (T-47D breast) was 883 nM, the TGI (T-47D breast) was over 100000 nM and the GI50 (BT-549 breast) was 3060 nM. For the same molecule, the TGI (BT-549 breast) was over 100000 nM, the GI50 (SK-MEL-2 melanoma) was 346 nM and the TGI (SK-MEL-2 melanoma) was 34400 nM. It also gave a GI50 (LOX IMVI melanoma) of 180 nM, a TGI (LOX IMVI melanoma) of over 100000 nM and a GI50 (HS 578T breast) of 190 nM. It also gave a TGI (HS 578T breast) of over 32100 nM, a GI50 (IGROV1 ovarian) of 1180 nM and a TGI (IGROV1 ovarian) of over 100000 nM. It also gave a GI50 (SW-620 colon) of 57.7 nM, a TGI (SW-620 colon) of over 100000 nM and a GI50 (786-0 renal) of 933 nM. The TGI (786-0 renal) was over 100000 nM, the GI50 (PC-3 prostate) was 908 nM and the TGI (PC-3 prostate) was over 100000 nM. For the same molecule, the GI50 (HT29 colon) was 3180 nM, the TGI (HT29 colon) was over 57200 nM and the GI50 (OVCAR-5 ovarian) was 4490 nM. For the same molecule, the TGI (OVCAR-5 ovarian) was over 100000 nM, the GI50 (HCC-2998 colon) was 1720 nM and the TGI (HCC-2998 colon) was over 31500 nM. For the same molecule, the GI50 (NCI-H226 lung) was 2490 nM, the TGI (NCI-H226 lung) was 8810 nM and the GI50 (U251 CNS) was 315 nM. The TGI (U251 CNS) was over 100000 nM, the GI50 (HOP-62 NSCLC) was 383 nM and the TGI (HOP-62 NSCLC) was over 54200 nM. It also gave a GI50 (HCT-15 colon) of 112 nM, a TGI (HCT-15 colon) of over 100000 nM and a GI50 (SF-295 CNS) of 832 nM. The TGI (SF-295 CNS) was over 100000 nM, the GI50 (SK-OV-3 ovarian) was 200 nM and the TGI (SK-OV-3 ovarian) was 1580 nM. The GI50 (TK-10 renal) was 5700 nM, the TGI (TK-10 renal) was 99400 nM and the GI50 (ACHN renal) was 1570 nM. For the same molecule, the TGI (ACHN renal) was over 100000 nM, the GI50 (A498 renal) was 2340 nM and the TGI (A498 renal) was 7500 nM. The GI50 (NCI/ADR-RES ovarian) was 43.6 nM, the GI50 (NCI-H522 lung) was 25.9 nM and the TGI (NCI-H522 lung) was 105 nM. For the same molecule, the GI50 (HCT-116 colon) was 345 nM, the TGI (HCT-116 colon) was 9190 nM and the GI50 (CAKI-1 renal) was 1410 nM. For the same molecule, the TGI (CAKI-1 renal) was over 100000 nM, the GI50 (NCI-H460 lung) was 299 nM and the TGI (NCI-H460 lung) was 9450 nM. For the same molecule, the GI50 (SK-MEL-5 melanoma) was 261 nM, the TGI (SK-MEL-5 melanoma) was 1710 nM and the GI50 (SF-268 CNS) was 287 nM. It also gave a TGI (SF-268 CNS) of 16100 nM.
